Measured values reported in the supplement of paper PMC10307832.

Experiments:
Experiment in all cases: relative viability (nuclei count vs DMSO), 5 days (fraction); higher = more cells survive
CUDC-101 + Luminespib = compound: C#Cc1cccc(Nc2ncnc3cc(OC)c(OCCCCCCC(=O)NO)cc23)c1 [CUDC-101] + CCNC(=O)c1noc(-c2cc(C(C)C)c(O)cc2O)c1-c1ccc(CN2CCOCC2)cc1 [Luminespib] (partner 0.01 µM)
Outline: (§1)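 Lung cancer cell lines in 1536-well plates got either a single drug or a fixed anchor-drug dose together with five library-drug doses (not always all listed) in √10 steps, by pin tool, on the day after seeding. Nuclei were counted after 5 days, and relative viability is the treated-to-vehicle ratio of nuclei counts. Values are medians of duplicate plates.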

[1] = compound: C1=CC=C2C(=C1)N=C(S2)C(C#N)C3=NC(=NC=C3)NCCC4=CN=CC=C4 + Nc1nc2[nH]cc(CCc3ccc(C(=O)N[C@@H](CCC(=O)O)C(=O)O)cc3)c2c(=O)[nH]1 [Pemetrexed] (partner 0.2 µM)
Outline: as §1

Vandetanib + Dasatinib = compound: COc1cc2/c(=N/c3ccc(Br)cc3F)nc[nH]c2cc1OCC1CCN(C)CC1 [Vandetanib] + Cc1nc(Nc2ncc(C(=O)Nc3c(C)cccc3Cl)s2)cc(N2CCN(CCO)CC2)n1 [Dasatinib] (partner 0.075 µM)
Outline: as §1

[2] = compound: C1=CC=C2C(=C1)N=C(S2)C(C#N)C3=NC(=NC=C3)NCCC4=CN=CC=C4 + COc1cccc2cc(-c3nc([C@H]4CC[C@H](C(=O)O)CC4)n4ncnc(N)c34)[nH]c12 [OSI-027] (partner 0.5 µM)
Outline: as §1

Row | Cell Line | relative viability (CUDC-101 + Luminespib; first compound 0.01 µM) | relative viability (CUDC-101 + Luminespib; first compound 0.03162 µM) | relative viability (CUDC-101 + Luminespib; first compound 0.1 µM) | relative viability (CUDC-101 + Luminespib; first compound 0.3162 µM) | relative viability (CUDC-101 + Luminespib; first compound 1 µM) | relative viability ([1]; first compound 0.005 µM) | relative viability ([1]; first compound 0.01581 µM) | relative viability ([1]; first compound 0.05 µM) | relative viability ([1]; first compound 0.1581 µM) | relative viability ([1]; first compound 0.5 µM) | relative viability (Vandetanib + Dasatinib; first compound 0.02 µM) | relative viability (Vandetanib + Dasatinib; first compound 0.06325 µM) | relative viability (Vandetanib + Dasatinib; first compound 0.2 µM) | relative viability (Vandetanib + Dasatinib; first compound 0.6325 µM) | relative viability (Vandetanib + Dasatinib; first compound 2 µM) | relative viability ([2]; first compound 0.005 µM) | relative viability ([2]; first compound 0.01581 µM) | relative viability ([2]; first compound 0.05 µM) | relative viability ([2]; first compound 0.1581 µM) | relative viability ([2]; first compound 0.5 µM)
1 | NCI-H1650 | 0.25 | 0.221 | 0.189 | 0.166 | 0.193 | 0.382 | 0.385 | 0.395 | 0.353 | 0.27 | 0.322 | 0.275 | 0.322 | 0.292 | 0.305 | 0.557 | 0.56 | 0.611 | 0.689 | 0.354
2 | NCI-H1651 | 0.787 | 0.77 | 0.811 | 0.991 | 0.839 | 0.41 | 0.527 | 0.597 | 0.708 | 0.381 | 0.313 | 0.461 | 0.431 | 0.394 | 0.386 | 0.69 | 0.672 | 0.72 | 0.939 | 0.674
3 | NCI-H1666 | 1.09 | 1.02 | 1.1 | 1 | 1.07 | 0.835 | 0.823 | 0.832 | 0.852 | 0.827 | 0.767 | 0.723 | 0.801 | 0.769 | 0.779 | 0.776 | 0.839 | 0.804 | 0.849 | 0.812
4 | NCI-H1734 | 0.206 | 0.185 | 0.193 | 0.167 | 0.157 | 0.412 | 0.405 | 0.416 | 0.434 | 0.418 | 0.471 | 0.497 | 0.44 | 0.469 | 0.468 | – | 0.571 | 0.546 | 0.669 | 0.556
5 | NCI-H1755 | 0.602 | 0.302 | 0.496 | 0.576 | 0.394 | 0.456 | 0.466 | 0.413 | 0.441 | 0.424 | 0.416 | 0.425 | 0.446 | 0.42 | 0.404 | 0.709 | 0.733 | 0.727 | 0.745 | 0.67
6 | NCI-H1792 | 0.459 | 0.381 | 0.578 | 0.504 | 0.25 | – | 0.889 | 0.875 | 1.22 | 0.335 | 0.774 | 0.803 | 0.783 | 0.884 | 0.725 | 0.648 | 0.64 | 0.759 | 1.16 | 0.36
7 | NCI-H1793 | 0.17 | 0.174 | 0.174 | 0.201 | 0.143 | – | 0.799 | 0.851 | 1.07 | 1.1 | 0.448 | 0.353 | 0.387 | 0.381 | 0.391 | 0.276 | 0.303 | 0.215 | 0.261 | 0.245
8 | NCI-H1915 | 0.908 | 0.787 | 0.774 | 0.788 | 0.551 | – | 0.506 | 0.434 | 0.563 | 0.481 | 0.278 | 0.279 | 0.304 | 0.313 | 0.312 | 0.623 | 0.583 | 0.619 | 0.671 | 0.584
9 | NCI-H1944 | 0.757 | 0.545 | 0.732 | 0.565 | 0.53 | 0.605 | 0.665 | 0.66 | 0.558 | 0.576 | 0.208 | 0.218 | 0.205 | 0.195 | 0.215 | 0.396 | 0.343 | 0.417 | 0.513 | 0.359
10 | NCI-H1975 | 0.336 | 0.155 | 0.254 | 0.351 | 0.213 | 0.286 | 0.303 | 0.295 | 0.331 | 0.26 | 0.349 | 0.361 | 0.341 | 0.423 | 0.373 | 0.511 | 0.819 | 0.613 | 0.811 | 0.283
11 | NCI-H1993 | 0.933 | 0.772 | 0.72 | 0.772 | 0.535 | 0.53 | 0.627 | 0.555 | 0.728 | 0.542 | 0.796 | 0.577 | 0.514 | 0.623 | 0.578 | 0.579 | 0.555 | 0.637 | 0.626 | 0.585
12 | NCI-H2009 | 1.07 | 0.904 | 1.06 | 1.02 | 0.928 | 0.992 | 1.05 | 0.98 | 1.09 | 1.02 | 0.326 | 0.241 | 0.329 | 0.309 | 0.349 | 0.649 | 0.547 | 0.564 | 0.726 | 0.603
13 | NCI-H2023 | 0.807 | 0.568 | 0.855 | 0.797 | 0.632 | 0.211 | 0.26 | 0.205 | 0.264 | 0.213 | 0.584 | 0.563 | 0.514 | 0.542 | 0.59 | 0.285 | 0.418 | 0.31 | 0.355 | 0.275
14 | NCI-H2085 | 0.479 | 0.446 | 0.437 | 0.45 | 0.385 | 0.763 | 0.785 | 0.843 | 0.851 | 0.89 | 0.226 | 0.236 | 0.2 | 0.279 | 0.244 | 0.675 | 0.738 | 0.57 | 0.931 | 0.663
15 | NCI-H2087 | 0.174 | 0.186 | 0.176 | 0.177 | 0.198 | 0.616 | 0.661 | 0.634 | 0.645 | 0.645 | 0.809 | 0.661 | 0.684 | 0.835 | 0.984 | 0.557 | 0.629 | 0.495 | 0.548 | 0.483
16 | NCI-H2126 | 1.03 | 0.871 | 0.938 | 0.891 | 0.793 | 0.577 | 0.73 | 0.652 | 0.69 | 0.726 | 0.564 | 0.564 | 0.626 | 0.559 | 0.467 | 0.739 | 0.676 | 0.732 | 0.705 | 0.677
